Experimental data as given in US10155768B2, “Fused pyrimidine compound or salt thereof” (TAIHO PHARMACEUTICAL CO., LTD., priority 2016, dated 2018).

test: Evaluation of stability in liver microsome; conditions: mouse liver microsome 0.25 mg/mL, 1 μM test compound, 37° C. for 30 minutes

Remaining (%)	Compound
57	COCc1ccc(NC(=O)c2cn(C(C)(C)C)c3ncnc(N)c23)c(OC)c1 [Example 33, 4-amino-7-(tert-butyl)-N-(2-methoxy-4-(methoxymethyl)phenyl)-7H-pyrrolo[2,3-d]pyrimidine-5-carboxamide]
57	COCc1ccc(NC(=O)c2c(C#CCN(C)C)n(C3(C)CC3)c3ncnc(N)c23)cc1 [Example 198, 4-amino-6-(3-(dimethylamino)prop-1-yn-1-yl)-N-(4-(methoxymethyl)phenyl)-7-(1-methylcyclopropyl)-7H-pyrrolo[2,3-d]pyrimidine-5-carboxamide]
90	COCc1ccc(NC(=O)c2c(C#Cc3ccc(OC)cc3)n(C3(C)CC3)c3ncnc(N)c23)cc1 [Example 165, 4-amino-N-(4-(methoxymethyl)phenyl)-6-((4-methoxypheny)ethynyl)-7-(1-methylcyclopropyl)-7H-pyrrolo[2,3-d]pyrimidine-5-carboxamide]
65	COCc1ccc(NC(=O)c2c(C#Cc3cnc4cccnn34)n(C3(C)CC3)c3ncnc(N)c23)cc1 [Example 91, 4-amino-6-(imidazo[1,2-b]pyridazin-3-ylethynyl)-N-[4-(methoxymethyl)phenyl]-7-(1-methylcyclopropyl)-7H-pyrrolo[2,3-d]pyrimidine-5-carboxamide]
58	[2H]C([2H])([2H])OCc1ccc(NC(=O)c2cn(C(C)(C)C)c3ncnc(N)c23)cc1 [Example 35, 4-amino-7-(tert-butyl)-N-(4-((methoxy-d3)-methyl)phenyl)-7H-pyrrolo[2,3-d]pyrimidine-5-carboxamide]
60	COCc1ccc(NC(=O)c2c(C#CCC3(O)CCC3)n(C3(C)CC3)c3ncnc(N)c23)cc1 [Example 103, 4-amino-6-(3-(1-hydroxycyclobutyl)prop-1-yn-1-yl)-N-(4-(methoxymethyl)phenyl)-7-(1-methylcyclopropyl)-7H-pyrrolo[2,3-d]pyrimidine-5-carboxamide]
83	COCc1ccc(NC(=O)c2c(C(C)O)n(C3(C)CC3)c3ncnc(N)c23)cc1 (stereo not drawn) [Example 204, 4-amino-6-(1-hydroxyethyl)-N-(4-(methoxymethyl)phenyl)-7-(1-methylcyclopropyl)-7H-pyrrolo[2,3-d]pyrimidine-5-carboxamide]
65	COCc1ccc(NC(=O)c2cn(C3(C(F)F)CC3)c3ncnc(N)c23)cc1 [Example 46, 4-amino-7-(1-(difluoromethyl)cyclopropyl)-N-(4-(methoxymethyl)phenyl)-7H-pyrrolo[2,3-d]pyrimidine-5-carboxamide]
68	COCc1ccc(NC(=O)c2c(-c3ccc(NC(C)=O)nc3)n(C3(C)CC3)c3ncnc(N)c23)cc1 [Example 147, 6-(6-acetamidopyridin-3-yl)-4-amino-N-(4-(methoxymethyl)phenyl)-7-(1-methylcyclopropyl)-7H-pyrrolo[2,3-d]pyrimidine-5-carboxamide]
71	COCc1ccc(NC(=O)c2c(OC[C@@H](C)OC)n(C3(C)CC3)c3ncnc(N)c23)cc1 [Example 96, (R)-4-amino-N-(4-(methoxymethyl)phenyl)-6-(2-methoxypropoxy)-7-(1-methylcyclopropyl)-7H-pyrrolo[2,3-d]pyrimidine-5-carboxamide]
58	COCc1ccc(NC(=O)c2c(C#CC3CCOCC3)n(C3(C)CC3)c3ncnc(N)c23)cc1F [Example 205, 4-amino-N-(3-fluoro-4-(methoxymethyl)phenyl)-7-(1-methylcyclopropyl)-6-((tetrahydro-2H-pyran-4-yl)ethynyl)-7H-pyrrolo[2,3-d]pyrimidine-5-carboxamide]
67	COCc1ccc(NC(=O)c2c(-c3cncnc3)n(C3(C)CC3)c3ncnc(N)c23)cc1 [Example 194, 4-amino-N-(4-(methoxymethyl)phenyl)-7-(1-methylcyclopropyl)-6-(pyrimidin-5-yl)-7H-pyrrolo[2,3-d]pyrimidine-5-carboxamide]
81	COCc1ccc(NC(=O)c2c(C)n(C(C)(C)C)c3ncnc(N)c23)cc1 [Example 60, 4-amino-7-(tert-butyl)-N-(4-(methoxymethyl)phenyl)-6-methyl-7H-pyrrolo[2,3-d]pyrimidine-5-carboxamide]
63	COCc1ccc(NC(=O)c2c(C#CC3CCOCC3)n(C3(C)CC3)c3ncnc(N)c23)cc1 [Example 87, 4-amino-N-[4-(methoxymethyl)phenyl]-7-(1-methylcyclopropyl)-6-((tetrahydro-2H-pyran-4-yl)ethynyl)-7H-pyrrolo[2,3-d]pyrimidine-5-carboxamide]
57	COCc1ccc(NC(=O)c2c(C#CCC3CCOCC3)n(C3(C)CC3)c3ncnc(N)c23)cc1 [Example 152, 4-amino-N-(4-(methoxymethyl)phenyl)-7-(1-methylcyclopropyl)-6-(3-(tetrahydro-2H-pyran-4-yl)prop-1-yn-1-yl)-7H-pyrrolo[2,3-d]pyrimidine-5-carboxamide]
55	CCn1nccc1C#Cc1c(C(=O)Nc2ccc(COC)cc2)c2c(N)ncnc2n1C1(C)CC1 [Example 114, 4-amino-6-((1-ethyl-1H-pyrazol-5-yl)ethynyl)-N-(4-(methoxymethyl)phenyl)-7-(1-methylcyclopropyl)-7H-pyrrolo[2,3-d]pyrimidine-5-carboxamide]
84	COCc1ccc(NC(=O)c2c(C#Cc3cccc(F)c3)n(C3(C)CC3)c3ncnc(N)c23)cc1 [Example 130, 4-amino-6-((3-fluorophenyl)ethynyl)-N-(4-(methoxymethyl)phenyl)-7-(1-methylcyclopropyl)-7H-pyrrolo[2,3-d]pyrimidine-5-carboxamide]
80	COCc1ccc(NC(=O)c2c(C#CCC3CCCCC3)n(C3(C)CC3)c3ncnc(N)c23)cc1 [Example 199, 4-amino-6-(3-cyclohexylprop-1-yn-1-yl)-N-(4-(methoxymethyl)phenyl)-7-(1-methylcyclopropyl)-7H-pyrrolo[2,3-d]pyrimidine-5-carboxamide]
69	COCc1ccc(NC(=O)c2c(C#Cc3csc(C)n3)n(C3(C)CC3)c3ncnc(N)c23)cc1 [Example 126, 4-amino-N-(4-(methoxymethyl)phenyl)-7-(1-methylcyclopropyl)-6-((2-methylthiazol-4-yl)ethynyl)-7H-pyrrolo[2,3-d]pyrimidine-5-carboxamide]
66	COCc1ccc(NC(=O)c2cn(C3(CF)CC3)c3ncnc(N)c23)cc1 [Example 45, 4-amino-7-(1-(fluoromethyl)cyclopropyl)-N-(4-(methoxymethyl)phenyl)-7H-pyrrolo[2,3-d]pyrimidine-5-carboxamide]
51	COCc1ccc(NC(=O)c2c(C#Cc3cncs3)n(C3(C)CC3)c3ncnc(N)c23)cc1 [Example 193, 4-amino-N-[4-(methoxymethyl)phenyl]-7-(1-methylcyclopropyl)-6-(thiazol-5-ylethynyl)-7H-pyrrolo[2,3-d]pyrimidine-5-carboxamide]
77	COCc1ccc(NC(=O)c2c(-c3ccc(N4CCN(C)CC4)cc3)n(C3(C)CC3)c3ncnc(N)c23)cc1 [Example 171, 4-amino-N-(4-(methoxymethyl)phenyl)-7-(1-methylcyclopropyl)-6-(4-(4-methylpiperazin-1-yl)phenyl)-7H-pyrrolo[2,3-d]pyrimidine-5-carboxamide]
59	COCc1ccc(NC(=O)c2c(C#CCN3CCCC3)n(C3(C)CC3)c3ncnc(N)c23)cc1 [Example 88, 4-amino-N-[4-(methoxymethyl)phenyl]-7-(1-methylcyclopropyl)-6-(3-(pyrrolidin-1-yl)prop-1-yn-1-yl)-7H-pyrrolo[2,3-d]pyrimidine-5-carboxamide]
60	COCc1ccc(NC(=O)c2c(C#Cc3cccnc3)n(C3(C)CC3)c3ncnc(N)c23)cc1 [Example 94, 4-amino-N-[4-(methoxymethyl)phenyl]-7-(1-methylcyclopropyl)-6-(pyridin-3-ylethynyl)-7H-pyrrolo[2,3-d]pyrimidine-5-carboxamide]
53	COCc1ccc(NC(=O)c2c(C#Cc3cncn3C)n(C3(C)CC3)c3ncnc(N)c23)cc1 [Example 93, 4-amino-N-(4-(methoxymethyl)phenyl)-6-((1-methyl-1H-imidazol-5-yl)ethynyl)-7-(1-methylcyclopropyl)-7H-pyrrolo[2,3-d]pyrimidine-5-carboxamide]
79	COCc1ccc(NC(=O)c2c(C#CC(C)(C)N)n(C3(C)CC3)c3ncnc(N)c23)cc1 [Example 134, 4-amino-6-(3-amino-3-methylbut-1-yn-1-yl)-N-(4-(methoxymethyl)phenyl)-7-(1-methylcyclopropyl)-7H-pyrrolo[2,3-d]pyrimidine-5-carboxamide]
55	COCc1ccc(NC(=O)c2c(C#CC3(O)CCCC3)n(C3(C)CC3)c3ncnc(N)c23)cc1 [Example 131, 4-amino-6-((1-hydroxycyclopentyl)ethynyl)-N-(4-(methoxymethyl)phenyl)-7-(1-methylcyclopropyl)-7H-pyrrolo[2,3-d]pyrimidine-5-carboxamide]
68	COCc1ccc(NC(=O)c2c(C3=CCOCC3)n(C3(C)CC3)c3ncnc(N)c23)cc1 [Example 203, 4-amino-6-(3,6-dihydro-2H-pyran-4-yl)-N-(4-(methoxymethyl)phenyl)-7-(1-methylcyclopropyl)-7H-pyrrolo[2,3-d]pyrimidine-5-carboxamide]
58	COCc1ccc(NC(=O)c2cn(C3(C)CC3)c3ncnc(N)c23)cc1F [Example 48, 4-amino-N-(3-fluoro-4-(methoxymethyl)phenyl)-7-(1-methylcyclopropyl)-7H-pyrrolo[2,3-d]pyrimidine-5-carboxamide]

Compound	Remaining (%)
COCc1ccc(NC(=O)c2c(OCC(C)C)n(C3(C)CC3)c3ncnc(N)c23)cc1 [Example 99, 4-amino-6-isobutoxy-N-(4-(methoxymethyl)phenyl)-7-(1-methylcyclopropyl)-7H-pyrrolo[2,3-d]pyrimidine-5-carboxamide]	51
